The source of these data is the supplement of paper PMC10307832.

Holding throughout (experiment): relative viability (nuclei count vs DMSO), 5 days (fraction); higher = more cells survive
For test [1], the system named is Calu-6. In short, it runs like this: (§1)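 Lung cancer cell lines in 1536-well plates got either a single drug or a fixed anchor-drug dose together with five library-drug doses (not always all listed) in √10 steps, by pin tool, on the day after seeding. Nuclei were counted after 5 days, and relative viability is the treated-to-vehicle ratio of nuclei counts. Values are medians of duplicate plates.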

In test [2] the test system is EBC-1. In short, it runs like this: as §1
For test [3], the system named is IA-LM. In short, it runs like this: as §1
Test [4] has as its system NCI-H1299. The essentials:
as §1

The test system of test [5] is NCI-H1703. In short, it runs like this: as §1
Test [6] relates to NCI-H661. The essentials: as §1
The test system of test [7] is NCI-H1648. The essentials:
as §1

Test [8] deals with A549. In short, it runs like this: as §1

As for `Clc1ccc(Nc2nnc(Cc3ccncc3)c3ccccc23)cc1` [Vatalanib] + CC(C)C[C@H](NC(=O)[C@H](Cc1ccccc1)NC(=O)c1cnccn1)B(O)O [Bortezomib] (partner 0.002 µM), the relative viability worked out at 1.07 in test [1] (first compound 0.04 µM); 0.991 in test [1] (first compound 0.1265 µM); 1.18 in test [1] (first compound 0.4 µM); 0.911 in test [1] (first compound 1.265 µM); 1.1 in test [1] (first compound 4 µM); 0.489 in test [2] (first compound 0.04 µM). Also, the relative viability in test [2] (first compound 0.1265 µM) is 0.498; in test [2] (first compound 0.4 µM), 0.807; in test [2] (first compound 1.265 µM), 0.519; in test [2] (first compound 4 µM), 0.524; in test [3] (first compound 0.04 µM), 0.963; in test [3] (first compound 0.1265 µM), 0.955. For the same compound, the relative viability amounted to 0.91 in test [3] (first compound 0.4 µM); 0.763 in test [3] (first compound 1.265 µM); 0.871 in test [3] (first compound 4 µM); 1.02 in test [4] (first compound 0.04 µM); 1.06 in test [4] (first compound 0.1265 µM); 1 in test [4] (first compound 0.4 µM). Besides, the relative viability was found to be 1.04 in test [4] (first compound 1.265 µM); 1.02 in test [4] (first compound 4 µM); 0.464 in test [5] (first compound 0.04 µM); 0.558 in test [5] (first compound 0.4 µM); 0.237 in test [5] (first compound 1.265 µM); 0.21 in test [5] (first compound 4 µM). Besides, the relative viability turned out to be 0.801 in test [6] (first compound 0.04 µM); 0.71 in test [6] (first compound 0.1265 µM); 0.882 in test [6] (first compound 0.4 µM); 0.764 in test [6] (first compound 1.265 µM); 0.816 in test [6] (first compound 4 µM).

For `CC(C)Oc1cc(Nc2nc(N[C@@H](C)c3ccc(F)cn3)ncc2Cl)n[nH]1` [AZ23] + NC(=O)Nc1cc(-c2cccc(F)c2)sc1C(=O)N[C@H]1CCCNC1 [AZD7762] (partner 0.2 µM), the relative viability in test [7] (first compound 0.01 µM) amounted to 0.659; in test [7] (first compound 0.03162 µM), 0.518; in test [7] (first compound 0.3162 µM), 0.762; in test [5] (first compound 0.03162 µM), 0.126; in test [5] (first compound 0.3162 µM), 0.154.

As to `Clc1ccc(Nc2nnc(Cc3ccncc3)c3ccccc23)cc1` [Vatalanib] + NC(=O)Nc1cc(-c2cccc(F)c2)sc1C(=O)N[C@H]1CCCNC1 [AZD7762] (partner 0.2 µM), the relative viability in test [7] (first compound 0.04 µM) was determined as 0.528; in test [7] (first compound 0.1265 µM), 0.632; in test [7] (first compound 0.4 µM) it was 0.665; in test [7] (first compound 1.265 µM) it was 0.655; in test [7] (first compound 4 µM), 0.735; in test [5] (first compound 0.04 µM), 0.128. The relative viability in test [5] (first compound 0.1265 µM) was 0.14; in test [5] (first compound 0.4 µM), 0.126; in test [5] (first compound 4 µM), 0.109.

`C[C@@H]1CN(CC(=O)Nc2ccc3c(c2)Cc2cccc(-c4cc(=O)cc(N5CCOCC5)o4)c2S3)C[C@H](C)O1` + CC1(C)CCC(c2ccc(Cl)cc2)=C(CN2CCN(c3ccc(C(=O)NS(=O)(=O)c4ccc(N[C@H](CCN5CCOCC5)CSc5ccccc5)c(S(=O)(=O)C(F)(F)F)c4)cc3)CC2)C1 [Navitoclax] (partner 0.5 µM): the relative viability was found to be 1.3 in test [8] (first compound 0.04 µM); 1.2 in test [8] (first compound 0.1265 µM); 1.23 in test [8] (first compound 0.4 µM); 0.912 in test [8] (first compound 4 µM); 0.871 in test [1] (first compound 0.04 µM); 0.831 in test [1] (first compound 0.1265 µM). In addition, the relative viability came out at 0.889 in test [1] (first compound 0.4 µM); 0.54 in test [1] (first compound 4 µM); 0.405 in test [2] (first compound 0.04 µM); 0.432 in test [2] (first compound 0.1265 µM); 0.287 in test [2] (first compound 0.4 µM); 0.216 in test [2] (first compound 4 µM). The relative viability was 0.759 in test [3] (first compound 0.04 µM); 0.787 in test [3] (first compound 0.1265 µM); 0.669 in test [3] (first compound 0.4 µM); 0.317 in test [3] (first compound 4 µM); 1.03 in test [4] (first compound 0.04 µM); 1.04 in test [4] (first compound 0.1265 µM). For the same compound, the relative viability in test [4] (first compound 0.4 µM) was 1.01; in test [4] (first compound 4 µM), 0.941; in test [5] (first compound 0.04 µM), 1.42; in test [5] (first compound 0.1265 µM), 1.45; in test [5] (first compound 0.4 µM), 0.911; in test [5] (first compound 4 µM), 0.808.

`CC(C)Oc1cc(Nc2nc(N[C@@H](C)c3ccc(F)cn3)ncc2Cl)n[nH]1` [AZ23] + CC1(C)CCC(c2ccc(Cl)cc2)=C(CN2CCN(c3ccc(C(=O)NS(=O)(=O)c4ccc(N[C@H](CCN5CCOCC5)CSc5ccccc5)c(S(=O)(=O)C(F)(F)F)c4)cc3)CC2)C1 [Navitoclax] (partner 0.5 µM): the relative viability in test [8] (first compound 0.01 µM) turned out to be 1.58; in test [8] (first compound 0.03162 µM), 1.48; in test [8] (first compound 0.3162 µM) it was 1.2; in test [1] (first compound 0.03162 µM) it was 0.952; in test [1] (first compound 0.3162 µM), 0.739; in test [2] (first compound 0.01 µM), 0.37. In addition, the relative viability in test [2] (first compound 0.03162 µM) is 0.451; in test [2] (first compound 0.3162 µM) it was 0.371; in test [3] (first compound 0.01 µM) it was 0.837; in test [3] (first compound 0.03162 µM), 0.97; in test [3] (first compound 0.3162 µM) it was 0.848; in test [4] (first compound 0.01 µM), 1.08. The relative viability turned out to be 1.04 in test [4] (first compound 0.03162 µM), 1.08 in test [4] (first compound 0.3162 µM), 1.13 in test [5] (first compound 0.03162 µM) and 1.08 in test [5] (first compound 0.3162 µM).

For the compound `CC(C)Oc1cc(Nc2nc(N[C@@H](C)c3ccc(F)cn3)ncc2Cl)n[nH]1` [AZ23] + CC(C)C[C@H](NC(=O)[C@H](Cc1ccccc1)NC(=O)c1cnccn1)B(O)O [Bortezomib] (partner 0.002 µM), the relative viability in test [1] (first compound 0.03162 µM) stood at 1.15; in test [1] (first compound 0.3162 µM), 1.04; in test [2] (first compound 0.01 µM), 0.579; in test [2] (first compound 0.03162 µM) it was 0.64; in test [2] (first compound 0.3162 µM), 0.493; in test [3] (first compound 0.01 µM) it was 1. For the same compound, the relative viability is 0.883 in test [3] (first compound 0.03162 µM); 0.776 in test [3] (first compound 0.3162 µM); 1.03 in test [4] (first compound 0.01 µM); 1.02 in test [4] (first compound 0.03162 µM); 1.1 in test [4] (first compound 0.3162 µM); 0.367 in test [5] (first compound 0.03162 µM). In addition, the relative viability in test [5] (first compound 0.3162 µM) worked out at 0.363; in test [6] (first compound 0.01 µM) it was 0.828; in test [6] (first compound 0.03162 µM) it was 0.845; in test [6] (first compound 0.3162 µM) it was 0.773.
